# Measured values from ChEMBL document CHEMBL1201862, “PubChem BioAssay data set” (2004).
# Activity calls are given as the source filed them.
# Legend:
# [1] = molecular target: T1, Tyrosine-protein phosphatase non-receptor type 7 (Homo sapiens, UniProt P35236); assay: inhibitors of human HePTP phosphatase, […], biochemical, absorbance, leukemia target (AID 521); type: functional
# T1 sequence (P35236 whole entry): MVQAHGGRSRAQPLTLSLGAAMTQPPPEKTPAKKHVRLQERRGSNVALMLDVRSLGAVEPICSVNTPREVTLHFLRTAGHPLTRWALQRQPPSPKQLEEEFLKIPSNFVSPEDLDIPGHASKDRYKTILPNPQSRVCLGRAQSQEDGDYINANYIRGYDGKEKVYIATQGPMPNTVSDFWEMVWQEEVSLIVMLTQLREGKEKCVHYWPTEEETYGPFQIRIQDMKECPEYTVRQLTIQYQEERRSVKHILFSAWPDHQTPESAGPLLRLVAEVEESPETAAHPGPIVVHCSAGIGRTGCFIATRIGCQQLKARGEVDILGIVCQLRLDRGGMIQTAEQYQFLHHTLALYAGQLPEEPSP
# [2] = molecular target: T2, Short transient receptor potential channel 4 (Mus musculus, UniProt Q9QUQ5); assay: mouse TRPC4 channel inhibitors, dose response, cell-based, HEK293 TRPC4/mu-opioid, Fluo-4 calcium (AID 434942); type: functional;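 further: potency of inhibitors blocking the TRPC4 calcium response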
# T2 sequence (Q9QUQ5 whole entry): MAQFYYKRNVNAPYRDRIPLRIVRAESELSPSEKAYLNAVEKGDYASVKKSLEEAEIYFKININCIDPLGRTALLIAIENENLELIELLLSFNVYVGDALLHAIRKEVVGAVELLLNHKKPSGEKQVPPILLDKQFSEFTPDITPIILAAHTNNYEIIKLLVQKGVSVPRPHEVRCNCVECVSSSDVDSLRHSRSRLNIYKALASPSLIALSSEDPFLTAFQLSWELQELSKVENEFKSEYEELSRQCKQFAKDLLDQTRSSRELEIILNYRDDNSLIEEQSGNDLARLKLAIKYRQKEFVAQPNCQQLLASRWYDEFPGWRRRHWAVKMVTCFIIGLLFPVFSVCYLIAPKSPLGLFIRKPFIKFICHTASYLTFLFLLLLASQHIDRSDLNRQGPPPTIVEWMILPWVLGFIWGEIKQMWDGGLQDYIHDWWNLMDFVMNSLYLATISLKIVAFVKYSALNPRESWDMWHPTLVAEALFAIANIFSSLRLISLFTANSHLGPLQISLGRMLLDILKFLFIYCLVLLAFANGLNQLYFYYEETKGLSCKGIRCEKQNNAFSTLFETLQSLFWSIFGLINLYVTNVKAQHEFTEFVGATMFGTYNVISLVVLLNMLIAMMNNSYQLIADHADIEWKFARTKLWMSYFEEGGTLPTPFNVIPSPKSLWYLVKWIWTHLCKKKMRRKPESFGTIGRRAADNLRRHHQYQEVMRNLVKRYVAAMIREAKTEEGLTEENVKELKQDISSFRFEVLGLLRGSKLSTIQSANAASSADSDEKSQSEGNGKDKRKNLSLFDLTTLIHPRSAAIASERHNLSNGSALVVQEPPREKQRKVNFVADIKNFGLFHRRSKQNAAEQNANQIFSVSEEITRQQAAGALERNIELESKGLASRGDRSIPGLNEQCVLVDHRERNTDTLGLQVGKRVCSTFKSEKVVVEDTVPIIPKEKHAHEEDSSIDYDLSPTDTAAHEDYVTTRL
# [3] = Jurkat T cell cytotoxicity, dose response, cytotoxicity control for P. falciparum gametocyte viability project, luminescence (AID 1117277); type: functional, cell-based;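 further: potency reflects loss of cellular ATP meaning fewer viable cells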
# [4] = P. falciparum late gametocyte killing, dose response, luminescence (AID 1117278); type: functional, cell-based;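 further: gametocytes exposed to compound for 24 hours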
# [5] = P. falciparum Dd2 growth inhibitors, dose response, SYBR Green, cherry-picked samples (AID 1159567); type: functional, cell-based
# [6] = HepG2 cell cytotoxicity, dose response, cytotoxicity control, cherry-picked samples (AID 1159577); type: functional, cell-based
# [7] = molecular target: T3, Oxysterols receptor LXR-beta (Homo sapiens, UniProt P55055); type: functional, cell-based;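 further: agonist activity at LXR measured by a cell-based luminescence readout across a dose range, run as a counterscreen for daf-12 agonists; HEK293 cells with Gal4-LXR fusion and GAL4-driven luciferase reporter; potency for activation of Gal4-LXR reporter so compounds are agonists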
# T3 sequence (P55055 whole entry): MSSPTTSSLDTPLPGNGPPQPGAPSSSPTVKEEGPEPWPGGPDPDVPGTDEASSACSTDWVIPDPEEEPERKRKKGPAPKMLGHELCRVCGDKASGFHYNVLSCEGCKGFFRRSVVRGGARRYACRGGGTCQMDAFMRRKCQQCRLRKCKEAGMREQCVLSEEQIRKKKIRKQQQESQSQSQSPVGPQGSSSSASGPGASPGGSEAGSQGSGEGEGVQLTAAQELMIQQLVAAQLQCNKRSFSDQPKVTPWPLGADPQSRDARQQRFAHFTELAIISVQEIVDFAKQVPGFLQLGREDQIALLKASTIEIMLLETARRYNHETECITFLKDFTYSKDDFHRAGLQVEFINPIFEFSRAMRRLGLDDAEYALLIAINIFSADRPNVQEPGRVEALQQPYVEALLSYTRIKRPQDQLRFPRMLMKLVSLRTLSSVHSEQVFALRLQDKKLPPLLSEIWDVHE
# [8] = HEK293 cell cytotoxicity, dose response, cytotoxicity control, plate reader, cherry-picked samples (AID 743446); type: functional, cell-based
# [9] = inhibitors of SNCA 5'UTR-driven reporter translation, confirmation, H4 neuroglioma cells, luminescence (AID 1988); type: functional, cell-based
# [10] = inhibitors of firefly luciferase expression or activity, dose response, H4 neuroglioma cells, luminescence (AID 1990); type: functional, cell-based
# [11] = Luminescence Cell-Based Dose Response HTS to Identify Inhibitors of 5'UTR Stem-Loop Driven Prion Protein mRNA Translation in H4 Neuroglioblastoma Cells. [Related pubchem assays: 1827 (Project Summary), 1813 (Primary HTS)]; type: functional
# [12] = MC4R antagonists, dose response, counter-screen for LGR2 antagonist project, cell-based, plate reader, cherry pick (AID 743444); type: functional;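 further: transfected HEK 293 cells stimulated with alpha-MSH peptide; potency of inhibitors of the alpha-MSH evoked signal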
# [13] = HepG2 cell cytotoxicity, dose response, cytotoxicity control, plate reader, cherry-pick, antagonist series (AID 743416); type: functional, cell-based
# [14] = A549 cell cytotoxicity, dose response, cytotoxicity control, plate reader, cherry-pick, antagonist series (AID 743412); type: functional, cell-based
# [15] = LGR2 antagonists, dose response, cell-based, HEK293, CRE-luciferase reporter, cherry pick, set 2 (AID 743343); type: functional;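 further: transfected cells were stimulated with diluted bursicon conditioned medium after compound addition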
# [16] = molecular target: Albumin (Bos taurus, UniProt P02769); assay: Counterscreen for inhibitors of T-cell receptor (TCR)-CD3 interaction: Fluorescence-based biochemical high throughput dose response assay to identify inhibitors of T-cell receptor (TCR)-CD3 interaction using a TAMRA-labeled BSA probe.; type: functional
# [17] = molecular target: T4, DNA repair protein RAD52 homolog (Homo sapiens, UniProt P43351); type: functional, biochemical
# T4 sequence (P43351 whole entry): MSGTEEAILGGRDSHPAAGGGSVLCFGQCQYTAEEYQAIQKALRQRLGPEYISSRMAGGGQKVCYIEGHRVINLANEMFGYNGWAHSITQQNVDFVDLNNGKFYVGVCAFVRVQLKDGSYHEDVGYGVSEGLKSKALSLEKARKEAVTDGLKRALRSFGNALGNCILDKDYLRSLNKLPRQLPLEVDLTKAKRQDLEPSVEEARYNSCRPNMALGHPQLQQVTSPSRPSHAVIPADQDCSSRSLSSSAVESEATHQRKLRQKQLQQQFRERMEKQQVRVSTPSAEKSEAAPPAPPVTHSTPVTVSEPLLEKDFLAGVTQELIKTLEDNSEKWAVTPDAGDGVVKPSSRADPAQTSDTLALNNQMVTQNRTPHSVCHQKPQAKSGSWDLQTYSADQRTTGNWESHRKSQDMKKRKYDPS
# [18] = molecular target: T5, Trace amine-associated receptor 1 (Homo sapiens, UniProt Q96RJ0); assay: Counterscreen for agonists of the human trace amine associated receptor 1 (hTAAR1): Fluorescence-based cell-based high throughput dose response assay to identify hTAAR1 agonist that also desensitize TAAR1 receptor response.; type: functional
# T5 sequence (Q96RJ0 whole entry): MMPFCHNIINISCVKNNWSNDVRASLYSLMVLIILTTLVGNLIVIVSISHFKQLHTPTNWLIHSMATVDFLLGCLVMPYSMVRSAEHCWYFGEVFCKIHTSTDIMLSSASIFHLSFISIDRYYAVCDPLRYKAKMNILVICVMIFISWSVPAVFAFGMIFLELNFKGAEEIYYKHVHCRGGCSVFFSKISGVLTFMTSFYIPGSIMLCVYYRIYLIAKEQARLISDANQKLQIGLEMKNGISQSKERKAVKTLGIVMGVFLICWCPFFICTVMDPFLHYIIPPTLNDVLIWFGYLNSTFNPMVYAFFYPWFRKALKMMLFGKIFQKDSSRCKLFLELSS
# [19] = cells; type: functional, cell-based
# [20] = cells; type: functional, cell-based; remark: listed apart in the source
# [21] = molecular target: T5, Trace amine-associated receptor 1; assay: Fluorescence-based cell-based high throughput dose response assay to identify agonists of the human trace amine associated receptor 1 (TAAR1).; type: functional
# [22] = HepG2 cell cytotoxicity, dose response, cytotoxicity control for Shn3 inhibitor project, CellTiter-Glo, cherry-picked (AID 624134); type: functional, cell-based
# [23] = molecular target: T6, Endoribonuclease toxin MazF (Escherichia coli K-12, UniProt P0AE70); assay: fluorescent RNA oligo signal without MazF, dose response, counter-screen for MazEF activator project, biochemical, fluorescence, single-stranded RNase substrate (AID 588502); type: functional
# T6 sequence (P0AE70 whole entry): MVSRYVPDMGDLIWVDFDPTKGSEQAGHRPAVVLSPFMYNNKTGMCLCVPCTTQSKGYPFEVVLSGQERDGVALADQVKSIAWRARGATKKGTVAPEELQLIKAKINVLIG
# [24] = molecular target: T6, Endoribonuclease toxin MazF; assay: MazF toxin RNase activators, dose response, biochemical, fluorescence, single-stranded RNA substrate, uHTS hits (AID 588481); type: functional
# [25] = molecular target: T7, Leucine aminopeptidase (Plasmodium falciparum 3D7, UniProt Q8IL11); assay: P. falciparum M17LAP inhibitors, primary screen, biochemical, fluorogenic H-Leu-NHMec substrate, 1536-well (AID 1619); type: functional
# T7 sequence (Q8IL11 whole entry): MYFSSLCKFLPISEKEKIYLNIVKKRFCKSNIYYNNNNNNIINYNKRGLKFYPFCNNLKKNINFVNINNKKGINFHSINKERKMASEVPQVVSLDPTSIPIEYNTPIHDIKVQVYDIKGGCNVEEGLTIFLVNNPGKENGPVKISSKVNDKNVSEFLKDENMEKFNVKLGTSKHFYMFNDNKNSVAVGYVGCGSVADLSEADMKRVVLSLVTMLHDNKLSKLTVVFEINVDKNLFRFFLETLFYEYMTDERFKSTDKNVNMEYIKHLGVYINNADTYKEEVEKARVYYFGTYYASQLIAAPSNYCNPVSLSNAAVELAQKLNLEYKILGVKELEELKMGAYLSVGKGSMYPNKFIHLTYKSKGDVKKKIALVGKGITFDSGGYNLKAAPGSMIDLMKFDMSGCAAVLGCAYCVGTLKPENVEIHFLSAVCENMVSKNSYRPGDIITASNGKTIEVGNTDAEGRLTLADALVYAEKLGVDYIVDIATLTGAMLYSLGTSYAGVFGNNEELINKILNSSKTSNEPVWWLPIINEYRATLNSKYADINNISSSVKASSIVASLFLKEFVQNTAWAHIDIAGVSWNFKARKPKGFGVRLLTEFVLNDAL
# Albumin, sequence (P02769 whole entry): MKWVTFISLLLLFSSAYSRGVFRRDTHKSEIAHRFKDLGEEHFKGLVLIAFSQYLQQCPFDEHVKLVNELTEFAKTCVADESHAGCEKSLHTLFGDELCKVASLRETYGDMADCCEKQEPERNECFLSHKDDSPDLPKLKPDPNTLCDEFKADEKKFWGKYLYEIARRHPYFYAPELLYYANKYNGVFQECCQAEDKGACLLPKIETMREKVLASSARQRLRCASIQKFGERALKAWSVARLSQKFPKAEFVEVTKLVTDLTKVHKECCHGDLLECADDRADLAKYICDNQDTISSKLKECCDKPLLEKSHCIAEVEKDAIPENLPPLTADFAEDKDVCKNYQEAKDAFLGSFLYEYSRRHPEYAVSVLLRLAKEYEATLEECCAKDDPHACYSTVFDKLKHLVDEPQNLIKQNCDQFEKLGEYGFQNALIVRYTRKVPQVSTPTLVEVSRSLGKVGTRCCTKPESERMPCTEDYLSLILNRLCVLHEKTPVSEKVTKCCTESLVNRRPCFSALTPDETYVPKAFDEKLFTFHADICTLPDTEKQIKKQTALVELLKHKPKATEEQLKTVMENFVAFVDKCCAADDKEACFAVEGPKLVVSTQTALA
structure (smiles),measurement,setting,value
Cn1c(=O)c2c(nc(SCc3cccnc3)n2Cc2ccc(F)cc2)n(C)c1=O,IC50,[1],> 100 µM (not active)
same,EC50,[2],0.944 µM (active)
Fc1ccc(Nc2nc(-c3ccncc3)cs2)cc1,IC50,[3],> 83.2 µM (inactive)
same,IC50,[4],> 109 µM (inactive)
COc1cccc(S(=O)(=O)Nc2ccc3c(c2)[C@@H]2C[C@H](CC(=O)NCc4ccc(Cl)cc4)O[C@@H](CO)[C@@H]2O3)c1,AC50,[5],5.66 µM (active)
same,AC50,[6],> 39 µM (inactive)
Cc1ccc(OCc2ccc(Br)cc2)c([N+](=O)[O-])n1,EC50,[7],> 67.5 µM (inactive)
COc1ccc2cc3cc(C(=O)NC4CC4)sc3nc2c1,AC50,[8],> 52 µM (inactive)
same,EC50,[9],5.41 µM (active)
same,EC50,[10],6.66 µM (inconclusive)
same,EC50,[11],7.47 µM (active)
same,AC50,[12],4.27 µM (active)
same,AC50,[13],> 52 µM (inactive)
same,AC50,[14],29.1 µM (active)
same,AC50,[15],3.86 µM (active)
C(=C\n1nnc2ccccc21)/c1ccccn1,EC50,[7],> 67.5 µM (inactive)
CCn1c2ccccc2c2nnc(SCC(=O)N3CC(C)OC(C)C3)nc21 (stereo not given),IC50,[1],> 100 µM (not active)
COc1ccc(Cc2nnc(NC(=O)c3ccco3)s2)cc1OC,IC50,[1],> 100 µM (not active)
Cc1cccc(C(=O)NCC(=O)NNC(=O)c2ccccc2O)c1,IC50,[16],> 94 µM (inactive)
CO[C@H]1CN(C)C(=O)c2cc(NC(=O)c3ccc(-c4ccccc4)cc3)ccc2OC[C@H](C)NC[C@H]1C,AC50,[5],5.36 µM (active)
same,AC50,[6],10.1 µM (active)
CN(C)CCN(C(=O)c1ccc2ccccc2c1)c1nc2cc3c(cc2s1)OCO3,AC50,[17],28.3 µM (active)
COc1ccccc1CCn1cnc(-c2ccc(Cl)cc2)c1CC(C)C,AC50,[8],> 52 µM (inactive)
same,IC50,[18],6.55 µM (active)
same,AC50,[12],17.7 µM (active)
same,AC50,[13],31.2 µM (active)
same,IC50,[19],14.2 µM (inactive)
same,AC50,[14],23.2 µM (active)
same,EC50,[20],> 30 µM (inactive)
same,EC50,[21],2.37 µM (active)
same,AC50,[15],19 µM (active)
O=C1/C(=C/Nc2ccccc2O)c2ccccc2C(=O)N1c1nccs1,IC50,[16],> 94.1 µM (inactive)
same,AC50,[22],> 70 µM (inactive)
same,EC50,[23],> 99 µM (inactive)
same,EC50,[24],> 99 µM (inactive)
Cc1ccccc1Cn1c2ccccc2c2cnn(CC(=O)NCCCN3CCN(C)CC3)c(=O)c21,AC50,[17],9.43 µM (active)
CCOC(=O)CSc1nc2cc3c(cc2cc1C)OCO3,IC50,[3],> 83.3 µM (inactive)
same,IC50,[4],> 109 µM (inactive)
COc1ccc(-c2nc(N)n(C(=O)c3ccccc3)n2)cc1,IC50,[3],> 83.3 µM (inactive)
same,IC50,[4],> 109 µM (inactive)
Cc1cc(C)cc(OCc2nc(-c3cccnc3)no2)c1,IC50,[3],> 83.3 µM (inactive)
same,IC50,[4],> 109 µM (inactive)
Cn1nnnc1SCC1=C(C(=O)O)N2C(=O)[C@@H](NC(=O)[C@H](O)c3ccccc3)[C@H]2SC1 [CEFAMANDOLE SODIUM],IC50,[25],12.1 µM (active)
same,IC50,[1],0.1 µM (active)
COCC1CCN(Cc2nc(-c3cccs3)no2)C1 (stereo not given),EC50,[7],> 67.5 µM (inactive)
